Test results published in paper PMC6234689 (International Journal of Retina and Vitreous, 2018).

How the values were obtained:
rabbit retina [1] = conditions: intravitreal 40 µg/50 µL, 24, 48, 72 and 168 h
Experimental: (§1) Baseline electroretinogram (ERG) was obtained for rabbits prior the intravitreal injection as the method described below. […] The effective dose was calculated from the previous study performed in our lab.

rabbit retina [2] = assay: Fundus imaging after intravitreal injection; assay type: in vivo, New Zealand rabbits; conditions: intravitreal 40 µg/0.05 ml, observational period of 7 days
Experimental: as §1
Following Electroretinogram (ERG) study, rabbit retina was focused and fundus images of both eyes were recorded using streampix software using MICRON III rodent imaging system (Phoenix Lab, USA) after subjecting them for ERG.

[3] = rabbit, intravitreal 40 µg/50 µL
[4] = tested on: progression of retinopathy; set-up: method as in PMID 9726242; conditions: EUCLID Study, diabetic patients; cited from earlier work
[5] = Stability of intravitreal formulation after thermal sterilization by autoclaving; assay type: physicochemical; conditions: 0.08% w/v in sterile saline, concentration before and after autoclaving
Description: After checking it for pH, it was filled, sealed in glass ampoules and subjected for autoclaving.

in vivo = conditions: New Zealand, rabbit, 40 µg

SMILES: NCCCC[C@H](N[C@@H](CCc1ccccc1)C(=O)O)C(=O)N1CCC[C@H]1C(=O)O [lisinopril]
- 'a' and 'b' wave amplitude of ERG compared to baseline (rabbit retina [1]): No changes were observed
- morphological changes in the retina on fundus images (rabbit retina [2]): no significant morphological changes
- lisinopril concentration in retina-choroid (highest) ([3]; at 1 h): 7 µg
- lisinopril concentration in the vitreous humour (highest) ([3]; at 1 h): 14.52 µg
- maximum concentration in sclera ([3]; at 2 h): 6.6 µg
- reduction of the risk of progression of retinopathy [4]: approximately 50%
- stability of formulation after thermal sterilization by autoclaving [5]: stable
- half-life (in vivo; in vivo): 12.6 h
- half-life (in vivo; vitreous humour): 41.5 h
